Data on 2 molecules can be found in US5322840A, “Treatment of hyperlipemia and hypertriglyceridemia” (Centre d'Etudes Experimentales et Cliniques de …, priority 1990, dated 1994).

The subject of series [1] is hypertriglyceridemia provoked by Triton WR1339 in Fauve de Bourgogne rabbits. Description: Triton-provoked hypertriglyceridemia in rabbits, Agr 529 iv. Format: in vivo, rabbit. The procedure:
Fauve de Bourgogne rabbits of an average weight of 2 kg (EGAV).
(§1) The hypertriglyceridemia is obtained by the intravenous (iv) injection of Triton WR1339 (tyloxapol) in a dose of 600 mg/kg, obtained from the Sigma Chemical Company, N. T 8761 (marginal vein of the ear of the rabbit, jugular vein or vein of the penis of the rat, under slight ether anesthesia, the pentobarbital which attaches itself on the A1 receptors being capable of interacting with the molecules used (Lhose et al., 1985). All the animals used had fasted for 15 hours. The blood was collected over heparin, centrifuged for 20 minutes (3000 rpm at 4° C.). In the serum collected, the TG (triglycerides) are determined in accordance with the GPO-PAP method Boeringher Peridochrom® Kit, item 701-882.
(§2) The animals are divided into two lots:
a control lot (6 animals) receiving isotonic saline solution iv in a volume of 0.5 ml/kg two hours before the injection of Triton and the same dose of saline solution as previously.
a treated lot (7 animals) receiving 2 mg/kg of Agr 529 iv in a volume of 0.5 ml/kg two hours before the injection of Triton and a new dose of Agr 529 (2 mg/kg).
A sampling of arterial blood, two hours after the injection of the Triton, permits determination of the triglycerides.

Series [2] deals with hypertriglyceridemia provoked by Triton WR1339 in Sprague-Dawley rats. Description: Triton-provoked hypertriglyceridemia in rats, intraperitoneal route. Format: in vivo, rat. On the procedure: (§3) Sprague-Dawley male white rats, Iffa Credo, of an average weight of 260-270 g.
as §1, §2
a control lot (4 animals) receiving isotonic saline solution in a volume of 0.2 ml/100 g of rat by intraperitoneal injection (ip), 20 minutes before the injection of the Triton (iv).
a treated lot (5 animals) receiving 2 mg/kg of Agr 529 ip, under the same conditions as the controls.
Two hours later, the animals are sacrificed by decapitation; the blood is collected by the method previously described, for determination of the triglycerides.

Series [3] has the same test system. Description: Triton-provoked hypertriglyceridemia in rats, per os. Particulars: for Triglycerides: Triton controls 7.53 ± 0.49; for triglycerides plasma concentrations: per os in doses of 3 and 30 mg/kg; for triglycerides plasma concentrations / action on the increase in the circulating triglycerides: Triton model; for action on the increase in the circulating triglycerides: per os. Format: in vivo, rat. The procedure: as §3, §1
The animals are divided into six lots:
one control-control lot receiving per os isotonic saline solution in a volume of 0.2 ml/100 g of rat 30 minutes before the iv injection of isotonic saline solution.
a Triton control lot receiving per os isotonic saline solution 30 minutes before the iv injection of Triton.
an Agr 529 lot (3 mg/kg in a volume of 0.2 ml/100 g of rat), 30 minutes before the iv injection of Triton.
one lot receiving, under the same conditions, 30 mg/kg of Agr 529 per os.
two lots receiving, under the same conditions as previously, 3 and 30 mg/kg of Agr 540 per os.

Series [4] concerns normal rats. Description: Normal rats, intravenous administration, plasma lipids. The format is in vivo, rat. The procedure: (§4) In normal animals, the fatty acids, triglycerides and cholesterol are determined by automated enzymatic reactions.
The animals are distributed into six lots of five animals each:
a control lot receiving the placebo (0.9% isotonic saline solution),
five treated lots receiving 0.03, 0.1, 0.3, 1 and 3 mg/kg of Agr 529 respectively by intravenous injection.
The animals are sacrificed two hours after the injection of the product.

Series [5] concerns normal rats. Description: Normal rats, intraperitoneal administration, plasma lipids. The format is in vivo, rat. The procedure: as §4
The animals are distributed in five lots of five animals each:
[…] receiving 0.1, 0.3, and 3 mg/kg.
The animals are sacrificed two hours after the administration of the Agr 529.

For series [6], the system named is normal rats. Description: Kinetic study of Agr 529 at 3 mg/kg iv in normal rats. Format: in vivo, rat. On the procedure: as §4
c) Kinetic study of Agr 529 in an amount of 3 mg/kg iv (FIG. V, VI, VII, VIII).

The test system of series [7] is HMG CoA reductase (β-hydroxy-β-methylglutaryl CoA reductase). Kind of series: In vitro study on microsomal fraction of liver: HMG CoA reductase activity. The format is biochemical.
Series [8] concerns ACAT (cholesterol-O-acyl transferase). Description: In vitro study on microsomal fraction of liver: ACAT activity. Format: biochemical. Particulars: 'the same' = no action.
The subject of a further series is normal animals. Description: Administration in normal animals, hypolipemia (conclusion, route not stated). The format is in vivo. The procedure: as §4
The conditions of series [9]: report submitted on Agr 529; cited from earlier work.
[10] abbreviates: rats, 30 mg/kg P.O. + Triton 600 mg/kg iv.

Entries after “also recorded” stand apart in the source; their conditions may differ. A value given as a limit tells only on which side of the number the result lay.

Consider `NC(=O)CCCNc1ncnc2c1ncn2[C@@H]1O[C@H](CO)[C@@H](O)[C@H]1O` [Agr 529, (N6-3-carboxamido-propyl) adenosine], for which the “plasma concentration of the circulating triglycerides” value is “normalized the plasma concentration of the circulating triglycerides” in series [1] (2 mg/kg intravenously in rabbits, Triton WR 1339 model) and “normalized the plasma concentration of the circulating triglycerides” in [2] (2 mg/kg intraperitoneally, Triton WR 1339 model). Also, the “Triglycerides time = 2” value in series [1] (rabbits n = 7, 2 hours after Agr 529 2 mg/kg iv, before Triton) came to 3.19 ± 0.38 mmol/L. In addition, the “Triglycerides time = 4” value in series [1] (rabbits n = 7, 2 hours after second Agr 529 2 mg/kg iv + Triton 600 mg/kg iv) is 4.65 ± 0.44 mmol/L. Also, in [1] (rabbits, Agr 529 2 mg/kg iv, control increase 196.5%), the “increase of the triglycerides caused by Triton” value was found to be 45%. Besides, the “Triglycerides time = 0” value in series [1] (rabbits, test lot n = 7, time = 0, before first injection of Agr 529 2 mg/kg iv) is 1.95 ± 0.34 mmol/L. For the same molecule, the “concentration of triglycerides less than the Triton controls” value in series [1] (rabbits, time 4, Agr 529 2 mg/kg iv) is on record as 150%. Moreover, the Triglycerides in series [2] (rats n = 5, Agr 529 2 mg/kg ip + Triton 600 mg/kg iv, two hours later, controls 6.32 ± 0.92) is 2.90 ± 0.26 mmols/liter; in series [3] (rats, 3 mg/kg P.O. + Triton 600 mg/kg iv), 4.87 ± 0.69 mmols/liter; in [3] (setting [10]) it was 4.64 ± 0.74 mmols/liter. Further, the “decrease in the quantity of triglycerides in circulation” value in series [2] (rats, Agr 529 2 mg/kg ip, Triton model, significant (**)) was 54%. The triglycerides plasma concentrations entry in [3] (rats) is listed as “return the triglycerides plasma concentrations to normal”. The “action on the increase in the circulating triglycerides” value in series [3] (rats) is reported as “significantly oppose the increase in the circulating triglycerides”. For the same molecule, the results for the hyperglycemia entry in the series with normal rats [4] (3 mg/kg iv) and in the series on normal rats [5] (0.3 mg/kg intraperitoneal) were “hyperglycemia is furthermore noted” and “hyperglycemia is no longer found”, respectively. In the series on normal rats [4] (3 mg/kg iv, two hours after the injection, 3 mg/kg), the “concentration of plasma triglycerides, total cholesterol, fatty acids and phospholipides” value is reported as “significant decrease”. Also, the minimal effective dose with normal rats [4] (Rattus norvegicus, 2 h, iv, doses 0.03-3 mg/kg, two hours after injection, read-out: dose from which the hypolipemizing effect appears) is no less than 0.1 mg/kg; with normal rats [5] (Rattus norvegicus, ip, 2 h, intraperitoneal, two hours after administration, read-out: dose from which the hypolipemizing effect starts to be significant) it was no less than 0.3 mg/kg. Also, the “plasma concentrations of fatty acids, phospholipides, triglycerides and total cholesterol, dose dependence” value with normal rats [4] (intravenous administration) was “decrease, as a function of the doses”. The “cholesterol and triglyceride concentrations of the high density lipoproteins (HDL)” value in the series on normal rats [4] (route not specified) was “No action”. For the same molecule, the “hypolipemia, dose dependence” value in the series with normal rats [5] (intraperitoneal administration) is on record as “hypolipemia as a function of the doses”. Besides, the “time after injection at which the hypolipemizing effect starts to appear” value with normal rats [6] was determined as 30 min. Further, the “time of maximum hypolipemizing effect” value with normal rats [6] is listed as “maximum at the end of two hours; also recorded: maximum effect at two hours”. Besides, the “stability towards adenosine deaminase (inferred from long duration of action)” value in the series on normal rats [6] (inferred in vivo) is “not destroyed by the adenosine deaminase”. Further, in the series on normal rats [6] (kinetic study), the “concentrations of fatty acids, triglycerides, total cholesterol and phospholipides” value is “significant decrease”. Besides, the “action on the activity of the HMG CoA reductase” value in series [7] is recorded as “no action”. In addition, the “action on the activity of ACAT” value in series [8] is recorded as “The same is true”. The “hypolipemia (reduction of fatty acids, phospholipides, triglycerides and cholesterol)” value in the series with normal animals is on record as “causes a hypolipemia”.
With `CCC(=O)OC[C@H]1O[C@@H](n2cnc3c(NCCCC(N)=O)ncnc32)[C@H](OC(=O)CC)[C@@H]1OC(=O)CC` [Agr 540, 6-(3-carboxamido-propylamino)-9-(2', 3', 5', tripropionyl-β-D-ribosyl) purine], the Triglycerides in series [3] (rats n = 6, first Agr 540 column, head prints 30 mg/kg P.O. + Triton 600 mg/kg iv) is 5.65 ± 0.46 mmols/liter. The Triglycerides in series [3] (setting [10]) is 3.67 ± 0.59 mmols/liter. In series [3] (rats), the triglycerides plasma concentrations entry is on record as “return the triglycerides plasma concentrations to normal” and the “action on the increase in the circulating triglycerides” value is recorded as “significantly oppose the increase in the circulating triglycerides”. Besides, the “hypolipemia (reduction of fatty acids, phospholipides, triglycerides and cholesterol)” value in the series with normal animals was “causes a hypolipemia”. Further, in [9], the “absorption per os relative to Agr 529” value was “better absorbed per os”.
